From PubChem BioAssay (NCI)
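Values below derive from 48-hour exposures of cells grown in 96-well plates, with endpoints linearly interpolated between the two concentrations bracketing the appropriate inhibition level. TGI: total growth inhibition.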

Tests used:
Assay in all cases: NCI tumour cell line growth inhibition, 48 h
HCT-116 colon = test system: HCT-116 colon
SN12C renal = test system: SN12C renal
MALME-3M melanoma = test system: MALME-3M melanoma
PC-3 prostate = test system: PC-3 prostate
NCI-H226 lung = test system: NCI-H226 lung
SK-MEL-2 melanoma = test system: SK-MEL-2 melanoma
M14 melanoma = test system: M14 melanoma
SK-MEL-5 melanoma = test system: SK-MEL-5 melanoma
DU-145 prostate = test system: DU-145 prostate
MDA-MB-435 = test system: MDA-MB-435
IGROV1 ovarian = test system: IGROV1 ovarian
MOLT-4 leukemia = test system: MOLT-4 leukemia
MCF7 breast = test system: MCF7 breast
SK-MEL-28 melanoma = test system: SK-MEL-28 melanoma
HS 578T breast = test system: HS 578T breast
MDA-N = test system: MDA-N
NCI/ADR-RES ovarian = test system: NCI/ADR-RES ovarian
786-0 renal = test system: 786-0 renal
EKVX NSCLC = test system: EKVX NSCLC
HOP-92 NSCLC = test system: HOP-92 NSCLC
HOP-62 NSCLC = test system: HOP-62 NSCLC
OVCAR-8 ovarian = test system: OVCAR-8 ovarian
CAKI-1 renal = test system: CAKI-1 renal
NCI-H522 lung = test system: NCI-H522 lung
UACC-257 melanoma = test system: UACC-257 melanoma
A549 NSCLC = test system: A549 NSCLC
TK-10 renal = test system: TK-10 renal
SNB-19 CNS = test system: SNB-19 CNS
SF-268 CNS = test system: SF-268 CNS
OVCAR-3 ovarian = test system: OVCAR-3 ovarian
HCT-15 colon = test system: HCT-15 colon
UO-31 renal = test system: UO-31 renal
OVCAR-4 ovarian = test system: OVCAR-4 ovarian
A498 renal = test system: A498 renal
SF-539 CNS = test system: SF-539 CNS
RPMI-8226 leukemia = test system: RPMI-8226 leukemia
UACC-62 melanoma = test system: UACC-62 melanoma
SW-620 colon = test system: SW-620 colon
ACHN renal = test system: ACHN renal
LOX IMVI melanoma = test system: LOX IMVI melanoma
OVCAR-5 ovarian = test system: OVCAR-5 ovarian
NCI-H460 lung = test system: NCI-H460 lung
SNB-75 CNS = test system: SNB-75 CNS
RXF 393 renal = test system: RXF 393 renal
U251 CNS = test system: U251 CNS
HCC-2998 colon = test system: HCC-2998 colon
HL-60(TB) leukemia = test system: HL-60(TB) leukemia
HT29 colon = test system: HT29 colon
T-47D breast = test system: T-47D breast
SF-295 CNS = test system: SF-295 CNS
NCI-H23 lung = test system: NCI-H23 lung
BT-549 breast = test system: BT-549 breast

Compound `CCOc1cccc(-c2cc(=O)c3cc4c(cc3[nH]2)OCO4)c1` has a TGI (HCT-116 colon) of 7.85 µM, a TGI (SN12C renal) of 5.38 µM and a TGI (MALME-3M melanoma) greater than 75.1 µM. The TGI (PC-3 prostate) was greater than 100 µM, the TGI (NCI-H226 lung) was 15.1 µM and the TGI (SK-MEL-2 melanoma) was 24.9 µM. For the same compound, the TGI (M14 melanoma) was greater than 37.6 µM, the TGI (SK-MEL-5 melanoma) was greater than 100 µM and the TGI (DU-145 prostate) was greater than 100 µM. For the same compound, the TGI (MDA-MB-435) was 0.0528 µM, the TGI (IGROV1 ovarian) was greater than 100 µM and the TGI (MOLT-4 leukemia) was greater than 100 µM. It also gave a TGI (MCF7 breast) greater than 100 µM, a TGI (SK-MEL-28 melanoma) greater than 100 µM and a TGI (HS 578T breast) of 13.5 µM. It also gave a TGI (MDA-N) greater than 100 µM, a TGI (NCI/ADR-RES ovarian) of 0.294 µM and a TGI (786-0 renal) of 7.06 µM. For the same compound, the TGI (EKVX NSCLC) was greater than 100 µM, the TGI (HOP-92 NSCLC) was 6.04 µM and the TGI (HOP-62 NSCLC) was greater than 100 µM. It also gave a TGI (OVCAR-8 ovarian) of 2.7 µM, a TGI (CAKI-1 renal) of 9.67 µM and a TGI (NCI-H522 lung) of 0.684 µM. The TGI (UACC-257 melanoma) was greater than 100 µM, the TGI (A549 NSCLC) was 28.9 µM and the TGI (TK-10 renal) was 8.45 µM. It also gave a TGI (SNB-19 CNS) greater than 27.1 µM, a TGI (SF-268 CNS) greater than 82.1 µM and a TGI (OVCAR-3 ovarian) of 3.88 µM. It also gave a TGI (HCT-15 colon) of 0.52 µM, a TGI (UO-31 renal) of 35.2 µM and a TGI (OVCAR-4 ovarian) greater than 100 µM. For the same compound, the TGI (A498 renal) was greater than 100 µM, the TGI (SF-539 CNS) was 0.549 µM and the TGI (RPMI-8226 leukemia) was greater than 100 µM. It also gave a TGI (UACC-62 melanoma) of 21.1 µM, a TGI (SW-620 colon) greater than 100 µM and a TGI (ACHN renal) greater than 62.3 µM. It also gave a TGI (LOX IMVI melanoma) greater than 100 µM, a TGI (OVCAR-5 ovarian) greater than 100 µM and a TGI (NCI-H460 lung) greater than 61.8 µM. It also gave a TGI (SNB-75 CNS) of 36.1 µM, a TGI (RXF 393 renal) of 1.82 µM and a TGI (U251 CNS) of 3.44 µM. It also gave a TGI (HCC-2998 colon) of 0.695 µM, a TGI (HL-60(TB) leukemia) greater than 100 µM and a TGI (HT29 colon) of 0.593 µM. The TGI (T-47D breast) was greater than 100 µM, the TGI (SF-295 CNS) was 0.329 µM and the TGI (NCI-H23 lung) was greater than 100 µM. It also gave a TGI (BT-549 breast) greater than 100 µM.
